This is an account of results in paper PMC9165921 (Molecular Biology, 2022).

Broadly, the EC50 is the concentration that produces a half-maximal response. Low values mean a more potent agent, high ones a less potent agent.

This experiment deals with SARS-CoV-2 strain PIK35. As to the kind of experiment: microbe, parasite or virus in culture. It counts as cell-based. The following applies: Severe acute respiratory syndrome coronavirus 2, Vero, 120 h.

In turn, `O=c1nc(NO)ccn1[C@@H]1O[C@H](CO)[C@@H](O)[C@H]1O` [N^4-hydroxycytidine] yielded an EC50 of over 5 µM.
